Results on 2 compounds are retold here after patent US6500455B1, “Tolperison-containing, pharmaceutical preparation for oral administration” (Sanochemia Pharmazeutika, priority 1999, dated 2002).

Structures are written as SMILES.

The nature of data set [1]: effectiveness of the Tolperison isomers. Conditions: comparison of (−) isomer, (+) isomer and racemic mixtures.
The conditions of data set [2]: blood (of humans); active ingredient present as 50/50 racemate; cited from earlier work.

As for `Cc1ccc(C(=O)C(C)CN2CCCCC2)cc1` (single isomer, unassigned; (-)) [(−) isomer, 2,4′-dimethyl-3-piperidonopropriophenone], the “effectiveness of the isomers compared with each other” value in data set [1] was “almost identically effective”. For the same compound, in data set [2], the “proportion of the isomer present in the blood” value is “up to 90%”.
In the case of `Cc1ccc(C(=O)C(C)CN2CCCCC2)cc1` (single isomer, unassigned; (+)) [(+) isomer], the “effectiveness of the isomers compared with each other” value in data set [1] was “almost identically effective”. For the same compound, the “proportion of the isomer present in the blood” value in data set [2] is reported as at most 10%.
